Assay results taken from ChEMBL document CHEMBL1201862, “PubChem BioAssay data set” (2004).
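Method: 48-hour compound exposure of cells in 96-well plates, five concentrations, linear interpolation of endpoints. At the GI50, growth is halved.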 Calls of active or inactive are those of the source. No stated cut-off is given here; in the data, active = GI50 up to about 1.1 µM and inactive = higher.

Legend:
Test in all cases: NCI tumour cell line growth inhibition, 48 h
A498 = test system: A498
A549 = test system: A549
ACHN = test system: ACHN
CAKI-1 = test system: CAKI-1
CCRF-CEM = test system: CCRF-CEM
COLO 205 = test system: COLO 205
DLD-1 = test system: DLD-1
DMS-114 = test system: DMS-114
DMS-273 = test system: DMS-273
HCC 2998 = test system: HCC 2998
HCT-116 = test system: HCT-116
HCT-15 = test system: HCT-15
HL-60 = test system: HL-60
HOP-18 = test system: HOP-18
HOP-92 = test system: HOP-92
HT-29 = test system: HT-29
KM12 = test system: KM12
LOX IMVI = test system: LOX IMVI
LXFL 529 = test system: LXFL 529
MOLT-4 = test system: MOLT-4
Malme-3M = test system: Malme-3M
NCI-H226 = test system: NCI-H226
NCI-H23 = test system: NCI-H23
NCI-H460 = test system: NCI-H460
NCI-H522 = test system: NCI-H522
OVCAR-4 = test system: OVCAR-4
OVCAR-5 = test system: OVCAR-5
RPMI-8226 = test system: RPMI-8226
RXF 393 = test system: RXF 393
RXF 631 = test system: RXF 631
SF-268 = test system: SF-268
SF-295 = test system: SF-295
SK-MEL-28 = test system: SK-MEL-28
SK-MEL-2 = test system: SK-MEL-2
SK-MEL-5 = test system: SK-MEL-5
SK-OV-3 = test system: SK-OV-3
SN12C = test system: SN12C
SNB-19 = test system: SNB-19
SNB-75 = test system: SNB-75
SNB-78 = test system: SNB-78
SR = test system: SR
SW-620 = test system: SW-620
TK-10 = test system: TK-10
U-251 = test system: U-251
UACC-257 = test system: UACC-257
XF498 = test system: XF498
786-0 = test system: 786-0
EKVX = test system: EKVX
HOP-62 = test system: HOP-62
IGROV-1 = test system: IGROV-1
K562 = test system: K562
KM-20L2 = test system: KM-20L2
M14 = test system: M14
M19-MEL = test system: M19-MEL
OVCAR-3 = test system: OVCAR-3
OVCAR-8 = test system: OVCAR-8
SF-539 = test system: SF-539
UACC-62 = test system: UACC-62
UO-31 = test system: UO-31

Compound: CN1NC(c2ccccc2)=C(C#N)C(=O)CC1c1ccc(F)cc1 (stereo unspecified)
- GI50 (A498): > 100 µM (inactive)
- GI50 (A549): > 100 µM (inactive)
- GI50 (ACHN): > 100 µM (inactive)
- GI50 (CAKI-1): > 100 µM (inactive)
- GI50 (CCRF-CEM): > 100 µM (inactive)
- GI50 (COLO 205): > 100 µM (inactive)
- GI50 (DLD-1): > 100 µM (inactive)
- GI50 (DMS-114): > 100 µM (inactive)
- GI50 (DMS-273): > 100 µM (inactive)
- GI50 (HCC 2998): > 100 µM (inactive)
- GI50 (HCT-116): > 100 µM (inactive)
- GI50 (HCT-15): > 100 µM
- GI50 (HL-60): > 100 µM (inactive)
- GI50 (HOP-18): > 100 µM (inactive)
- GI50 (HOP-92): > 100 µM (inactive)
- GI50 (HT-29): > 100 µM (inactive)
- GI50 (KM12): > 100 µM (inactive)
- GI50 (LOX IMVI): > 100 µM (inactive)
- GI50 (LXFL 529): > 100 µM (inactive)
- GI50 (MOLT-4): > 100 µM (inactive)
- GI50 (Malme-3M): > 100 µM (inactive)
- GI50 (NCI-H226): > 100 µM (inactive)
- GI50 (NCI-H23): > 100 µM (inactive)
- GI50 (NCI-H460): > 100 µM (inactive)
- GI50 (NCI-H522): 62.4 µM (inactive)
- GI50 (OVCAR-4): > 100 µM (inactive)
- GI50 (OVCAR-5): > 100 µM (inactive)
- GI50 (RPMI-8226): > 100 µM (inactive)
- GI50 (RXF 393): > 100 µM (inactive)
- GI50 (RXF 631): > 100 µM (inactive)
- GI50 (SF-268): > 100 µM (inactive)
- GI50 (SF-295): > 100 µM (inactive)
- GI50 (SK-MEL-28): > 100 µM (inactive)
- GI50 (SK-MEL-2): > 100 µM (inactive)
- GI50 (SK-MEL-5): > 100 µM (inactive)
- GI50 (SK-OV-3): > 100 µM (inactive)
- GI50 (SN12C): > 100 µM (inactive)
- GI50 (SNB-19): > 100 µM (inactive)
- GI50 (SNB-75): 41.3 µM (inactive)
- GI50 (SNB-78): > 100 µM (inactive)
- GI50 (SR): > 100 µM (inactive)
- GI50 (SW-620): > 100 µM (inactive)
- GI50 (TK-10): > 100 µM (inactive)
- GI50 (U-251): > 100 µM (inactive)
- GI50 (UACC-257): > 100 µM (inactive)
- GI50 (XF498): > 100 µM (inactive)

Compound: CC(C)(C)c1cc(O)c2c(c1O)C(=O)CCC2
- GI50 (786-0): 32.1 µM (inactive)
- GI50 (A498): 40.6 µM (inactive)
- GI50 (A549): 35.9 µM (inactive)
- GI50 (ACHN): 50.2 µM (inactive)
- GI50 (CAKI-1): 22.5 µM (inactive)
- GI50 (CCRF-CEM): 35.2 µM (inactive)
- GI50 (COLO 205): 73.8 µM (inactive)
- GI50 (DLD-1): 37.9 µM (inactive)
- GI50 (DMS-114): 20.3 µM (inactive)
- GI50 (DMS-273): 34.8 µM (inactive)
- GI50 (EKVX): 54.8 µM (inactive)
- GI50 (HCC 2998): 36.7 µM (inactive)
- GI50 (HCT-116): 31.7 µM (inactive)
- GI50 (HCT-15): 40.8 µM
- GI50 (HL-60): 20.2 µM (inactive)
- GI50 (HOP-18): 60.5 µM (inactive)
- GI50 (HOP-62): 22.8 µM (inactive)
- GI50 (HOP-92): 2.69 µM (inactive)
- GI50 (HT-29): 32.9 µM (inactive)
- GI50 (IGROV-1): 40.7 µM (inactive)
- GI50 (K562): 30.3 µM (inactive)
- GI50 (KM-20L2): 40.1 µM (inactive)
- GI50 (LOX IMVI): 28.4 µM (inactive)
- GI50 (LXFL 529): 34.8 µM (inactive)
- GI50 (M14): 34.9 µM (inactive)
- GI50 (M19-MEL): 30.5 µM (inactive)
- GI50 (MOLT-4): 23.9 µM (inactive)
- GI50 (NCI-H23): 28.9 µM (inactive)
- GI50 (NCI-H460): 48 µM (inactive)
- GI50 (OVCAR-3): 25.6 µM (inactive)
- GI50 (OVCAR-4): 30.2 µM (inactive)
- GI50 (OVCAR-8): 36.7 µM (inactive)
- GI50 (RPMI-8226): 21.1 µM (inactive)
- GI50 (RXF 393): 19.1 µM (inactive)
- GI50 (RXF 631): 57.7 µM (inactive)
- GI50 (SF-295): 30.2 µM (inactive)
- GI50 (SF-539): 42.3 µM (inactive)
- GI50 (SK-MEL-28): 42.6 µM (inactive)
- GI50 (SK-MEL-5): 18.4 µM (inactive)
- GI50 (SK-OV-3): 40.5 µM (inactive)
- GI50 (SN12C): 41.8 µM (inactive)
- GI50 (SNB-19): 32.7 µM (inactive)
- GI50 (SNB-75): 42.4 µM (inactive)
- GI50 (SNB-78): 32.7 µM (inactive)
- GI50 (SW-620): 57.8 µM (inactive)
- GI50 (TK-10): 40.9 µM (inactive)
- GI50 (U-251): 50.7 µM (inactive)
- GI50 (UACC-257): 29.4 µM (inactive)
- GI50 (UACC-62): 26 µM (inactive)
- GI50 (XF498): 31.1 µM (inactive)

Compound: C[C@]12CCC3[C@@H](CC[C@@H]4c5nonc5CC[C@]34C)C1CCC(=O)N2 (stereo partly specified)
- GI50 (786-0): > 100 µM (inactive)
- GI50 (A498): > 100 µM (inactive)
- GI50 (A549): > 100 µM (inactive)
- GI50 (ACHN): > 100 µM (inactive)
- GI50 (CAKI-1): > 100 µM (inactive)
- GI50 (CCRF-CEM): > 100 µM (inactive)
- GI50 (COLO 205): > 100 µM (inactive)
- GI50 (DMS-273): > 100 µM (inactive)
- GI50 (EKVX): 68.9 µM (inactive)
- GI50 (HCT-116): > 100 µM (inactive)
- GI50 (HCT-15): > 100 µM
- GI50 (HL-60): 93.8 µM (inactive)
- GI50 (HOP-18): > 100 µM (inactive)
- GI50 (HOP-62): > 100 µM (inactive)
- GI50 (HOP-92): 95.7 µM (inactive)
- GI50 (HT-29): > 100 µM (inactive)
- GI50 (IGROV-1): > 100 µM (inactive)
- GI50 (K562): > 100 µM (inactive)
- GI50 (KM-20L2): > 100 µM (inactive)
- GI50 (KM12): > 100 µM (inactive)
- GI50 (LOX IMVI): > 100 µM (inactive)
- GI50 (LXFL 529): > 100 µM (inactive)
- GI50 (M14): > 100 µM (inactive)
- GI50 (M19-MEL): > 100 µM (inactive)
- GI50 (MOLT-4): > 100 µM (inactive)
- GI50 (Malme-3M): > 100 µM (inactive)
- GI50 (NCI-H226): > 100 µM (inactive)
- GI50 (NCI-H23): > 100 µM (inactive)
- GI50 (NCI-H460): > 100 µM (inactive)
- GI50 (NCI-H522): 56.1 µM (inactive)
- GI50 (OVCAR-3): > 100 µM (inactive)
- GI50 (OVCAR-4): > 100 µM (inactive)
- GI50 (OVCAR-5): > 100 µM (inactive)
- GI50 (OVCAR-8): > 100 µM (inactive)
- GI50 (RPMI-8226): 67.9 µM (inactive)
- GI50 (RXF 393): > 100 µM (inactive)
- GI50 (RXF 631): > 100 µM (inactive)
- GI50 (SF-268): > 100 µM (inactive)
- GI50 (SF-295): > 100 µM (inactive)
- GI50 (SF-539): > 100 µM (inactive)
- GI50 (SK-MEL-28): > 100 µM (inactive)
- GI50 (SK-MEL-2): 0.356 µM (active)
- GI50 (SK-MEL-5): > 100 µM (inactive)
- GI50 (SK-OV-3): > 100 µM (inactive)
- GI50 (SN12C): > 100 µM (inactive)
- GI50 (SNB-19): > 100 µM (inactive)
- GI50 (SNB-75): 55 µM (inactive)
- GI50 (SNB-78): > 100 µM (inactive)
- GI50 (SW-620): > 100 µM (inactive)
- GI50 (TK-10): > 100 µM (inactive)
- GI50 (U-251): > 100 µM (inactive)
- GI50 (UACC-257): > 100 µM (inactive)
- GI50 (UACC-62): > 100 µM (inactive)
- GI50 (UO-31): > 100 µM (inactive)
- GI50 (XF498): > 100 µM (inactive)
